Measurements: patent US6534075B1, “Antimicrobial and antiviral compositions and treatments for food surfaces” (Ecolab Inc., priority 1999, dated 2003)
Like-named read-outs stand apart in the source and are kept apart here. Marks after values point to notes of the source that are not given here.

Legend:
Feline parvovirus = conditions: published results against Feline parvovirus, cited from earlier work
P. expansum = assay: Log reduction of P. expansum by liquid compositions, 15 minute contact (Table 5); format: cell-based
Description: (§1) Results recorded include the pH of the solution, the color of the solution and the log reduction in microbe. In Table 4, E. coli is used in all examples, while a variety of organisms (gram positive and gram negative bacteria, a yeast, a mold) are used in Table 5.

E. coli = assay: Log reduction of E. coli by liquid compositions, 30 second contact (Tables 4, 5); format: cell-based; conditions: for E. Coli Log Reduction: single component alone, pH 3, 30 second contact time, vs untreated control; for Log Reduction: E. coli
Description: Results recorded include the pH of the solution, the color of the solution and the log reduction in microbe. In Table 4, E. coli is used in all examples, while a variety of organisms (gram positive and gram negative bacteria, a yeast, a mold) are used in Table 5. [table] [table]

S. javiana = assay: Microbial reduction on Roma tomato surfaces, five minute submersion (Table 6); conditions: tomatoes submerged five minutes at 72° F., versus untreated control
Experimental: Specifically, comparison is made to the use of either sodium hypochlorite (bleach), hydrogen peroxide or peracetic acid.
Testing was performed on commercial Roma tomato surfaces using the test organism Salmonella javinia. For the pathogenic organisms, a 1:10 dilution of a 10^7 CFU/ml (colony forming units per ml) test system suspension was prepared. Whole tomatoes were placed into a plastic bag, and each bag was inoculated with a 10-mil. test system suspension, resulting in an inoculum level of […]. Bags are gently shaken for even distribution of the test system for five minutes. The produce types are then stored overnight at 4° C. Untreated controls were also prepared. Two-liter volumes of the test solutions were prepared in 4-liter beakers. Solutions were prepared in laboratory tap water to simulate industry conditions. The tomatoes were then exposed to the test solution by submersion for five minutes at 72° F. (about 22° C.). At the end of that time, the tomatoes were removed from the solution and thoroughly rinsed under fresh-running tap water. Fifty grams of the home produce (tomato), plus 100 ml buffered dilution water were placed into a stomacher bag. The tomatoes were massaged for 60 seconds. […] on TGE (Salmonella). Plates were incubated at 35° C. for 48 hours.

Z. bailii = assay: Log reduction of Z. bailii by liquid compositions, 30 second contact (Table 5); format: cell-based
Total bacterial flora = assay: Meat carcass treatment, prerigor beef surfaces (Table 7); conditions: active antimicrobial 1000 ppm; carcass treated 30 seconds, drained 10 minutes
Experimental: Working Example 5 is similar to the previous example in that comparisons are made between the present invention and known commercial compositions for control of microorganisms on food surfaces. In this case, however, comparisons were made for meat carcass treatments.
Testing was performed on prerigor beef surfaces from a packing house. Total bacterial flora were tested. The carcasses were treated for 30 seconds and drained for 10 minutes. Test samples were isolated and plated for total […].

S. aureus [1] = assay: Food-preparation hard surface sanitizing comparison, S. aureus (Table 12); format: cell-based; conditions: actives conc. 300 ppm
Description: (§2) Table 12 compares formulas of the present invention with prior art examples of food-preparation hard surface sanitizing. […] [table]

S. aureus [2] = assay: Log reduction of S. aureus by liquid compositions, 30 second contact (Table 5); format: cell-based; conditions: N-source:H2O2:KI 0:300:0 ppm, pH 5, 30 second contact
Description: as §1

E. coli ATCC 11229 = assay: Food-preparation hard surface sanitizing comparison, E. coli (Table 12); format: cell-based; conditions: actives conc. 300 ppm; 30 second exposure
Description: as §2

[3] = N-source:H2O2:KI 300:0:0 ppm, pH 7, 30 second contact

Oc1ccccc1-c1ccccc1 [o-phenylphenol G]
Minimum Concentration (for 10-minute inactivation) (Feline parvovirus): 100,000 ppm

[I-].[K+] [KI, potassium iodide]
Log Reduction (P. expansum; N-source:H2O2:KI 0:0:500 ppm, pH 5, 15 minute contact): 0.0* log | E. Coli Log Reduction (E. coli): 0 log

CC(=O)OO [peracetic acid]
Log Reduction (S. javiana; active antimicrobial 80 ppm): 2.8 log

CCO [Ethanol]
Minimum Concentration (for 10-minute inactivation) (Feline parvovirus): 500,000 ppm

CC(C)O [IPA]
Minimum Concentration (for 10-minute inactivation) (Feline parvovirus): 500,000 ppm

C[N+](C)(C)CCO.[Cl-] [choline chloride]
Log Reduction (Z. bailii; [3]): 0.0 log | Log Reduction (E. coli; [3]): 0.0 log | E. Coli Log Reduction (E. coli): 0 log

OCl [sodium hypochlorite]
Log Reduction (S. javiana; active antimicrobial 30 ppm): 0.3 log | Log Reduction (S. javiana; active antimicrobial 80 ppm): 1.9 log | Minimum Concentration (for 10-minute inactivation) (Feline parvovirus): 2,000 ppm

CCCCCCCCCCCCCCCC[n+]1ccccc1 [cetyl pyridinium chloride]
Log Reduction (Total bacterial flora): 0.5 log

O=CCCCC=O [Glutaraldehyde]
Outcome noted in parentheses at the listed concentration (Feline parvovirus; 10-minute inactivation): 2-log | Minimum Concentration (for 10-minute inactivation) (Feline parvovirus; unit not given): 10,000

CCCCCCCCCC[N+](C)(C)CCCCCCCCCC.[Cl-] [didecyl dimethyl ammonium chloride]
Log Reduction (Z. bailii; N-source:H2O2:KI 20:0:0 ppm, pH 3, 30 second contact): 0.1 log | Log Reduction (P. expansum; N-source:H2O2:KI 100:0:0 ppm, pH 7, 15 minute contact): 1.0* log

lecithin
E. Coli Log Reduction (E. coli): 0 log

OO [Formula H2O2, hydrogen peroxide]
Log Reduction (S. javiana; active antimicrobial 80 ppm): <0.1 log | Log Reduction S. aureus (S. aureus [1]): 0.4 log | Log Reduction (Z. bailii; N-source:H2O2:KI 0:532:0 ppm, pH 3, 30 second contact): 0.1 log | Log Reduction (Z. bailii; N-source:H2O2:KI 0:532:0 ppm, pH 5, 30 second contact): 0.1 log | Log Reduction (Z. bailii; N-source:H2O2:KI 0:532:0 ppm, pH 7, 30 second contact): 0.1 log | Log Reduction (S. aureus [2]): 0.4 log | Log Reduction (P. expansum; N-source:H2O2:KI 0:532:0 ppm, pH 5, 15 minute contact): 0.0* log | Log Reduction E. coli (E. coli ATCC 11229): 0.2 log | Log Reduction (E. coli; N-source:H2O2:KI 0:300:0 ppm, pH 5, 30 second contact): 0.2 log | E. Coli Log Reduction (E. coli): 0.2 log
